# Experimental data: publication PMC6554660 (Frontiers in Pharmacology, 2019)
# Entries after “also recorded” stand apart in the source; their conditions may differ. Where a SMILES comes first, the peptide text is derived from it. Bridges are numbered along the chain shown (N, C = ends).
# Assays:
# rat α3β2 nAChR = rat α3β2 nAChR (Rattus norvegicus, UniProt P04757+P12390); experiment: cell-based
# rat α7 nAChR = rat α7 nAChR (Rattus norvegicus, UniProt Q05941); experiment: cell-based; assay type: cell-based
# rat α7 nAChR, sequence (Q05941 23-502 limits assumed): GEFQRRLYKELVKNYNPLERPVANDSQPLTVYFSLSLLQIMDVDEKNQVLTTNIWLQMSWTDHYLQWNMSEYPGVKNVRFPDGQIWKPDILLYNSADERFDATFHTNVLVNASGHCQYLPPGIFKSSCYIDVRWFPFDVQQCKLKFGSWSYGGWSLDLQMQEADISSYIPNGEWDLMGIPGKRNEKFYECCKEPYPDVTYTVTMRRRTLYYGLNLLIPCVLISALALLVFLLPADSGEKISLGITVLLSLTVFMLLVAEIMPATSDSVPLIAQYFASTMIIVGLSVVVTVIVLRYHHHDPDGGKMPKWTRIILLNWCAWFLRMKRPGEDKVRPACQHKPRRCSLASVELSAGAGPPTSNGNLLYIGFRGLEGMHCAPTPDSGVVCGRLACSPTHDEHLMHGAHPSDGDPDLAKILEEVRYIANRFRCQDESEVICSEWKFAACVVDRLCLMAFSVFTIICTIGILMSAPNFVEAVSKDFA
# [1] = in vivo; cited from earlier work
# rat α3β2 nAChR, sequence (P04757 26-499 limits assumed): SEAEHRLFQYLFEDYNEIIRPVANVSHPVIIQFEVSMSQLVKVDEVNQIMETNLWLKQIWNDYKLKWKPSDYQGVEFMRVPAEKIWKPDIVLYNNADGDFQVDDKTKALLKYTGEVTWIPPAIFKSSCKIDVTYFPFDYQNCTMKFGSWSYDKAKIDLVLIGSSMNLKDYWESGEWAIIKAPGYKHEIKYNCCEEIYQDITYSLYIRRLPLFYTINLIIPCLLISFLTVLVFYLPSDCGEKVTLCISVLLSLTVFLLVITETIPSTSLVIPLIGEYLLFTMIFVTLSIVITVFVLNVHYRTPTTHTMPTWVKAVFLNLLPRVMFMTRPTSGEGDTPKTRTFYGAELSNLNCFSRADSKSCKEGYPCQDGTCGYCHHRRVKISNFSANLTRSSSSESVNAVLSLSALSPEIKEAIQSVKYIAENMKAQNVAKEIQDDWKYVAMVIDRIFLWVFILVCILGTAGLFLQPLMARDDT
# rat α3β2 nAChR, sequence (P12390 25-500 limits assumed): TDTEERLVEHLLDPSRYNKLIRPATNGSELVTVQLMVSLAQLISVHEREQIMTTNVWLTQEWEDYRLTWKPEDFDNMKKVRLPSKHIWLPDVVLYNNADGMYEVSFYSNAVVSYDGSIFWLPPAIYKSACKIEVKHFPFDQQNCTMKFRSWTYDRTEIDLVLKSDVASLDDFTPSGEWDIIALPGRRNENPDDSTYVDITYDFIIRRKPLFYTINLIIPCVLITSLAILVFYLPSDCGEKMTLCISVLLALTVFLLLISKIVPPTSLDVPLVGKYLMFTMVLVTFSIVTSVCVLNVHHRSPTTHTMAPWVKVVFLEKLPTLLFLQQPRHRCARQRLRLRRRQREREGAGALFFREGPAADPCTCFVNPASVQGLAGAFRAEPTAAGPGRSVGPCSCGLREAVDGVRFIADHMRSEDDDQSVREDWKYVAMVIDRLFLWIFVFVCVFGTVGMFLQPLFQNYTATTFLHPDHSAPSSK
Molecule,nH (Hill coefficient) (rat α3β2 nAChR),IC50 (rat α7 nAChR),activity at α7 nAChR (in words) (rat α7 nAChR),nH (Hill coefficient) (rat α7 nAChR),IC50 (rat α3β2 nAChR),analgesic properties [1]
CC[C@H](C)[C@@H]1NC(=O)[C@@H]2CSSC[C@H](NC(=O)[C@@H](NC(=O)CN)CSSC[C@@H](C(=O)O)NC(=O)[C@H](CC(C)C)NC(=O)[C@H](CC(=O)O)NC(=O)[C@@H]3CCCN3C(=O)[C@H](CC(N)=O)NC(=O)[C@H](CC(N)=O)NC(=O)[C@H](C)NC1=O)C(=O)N[C@@H](CO)C(=O)N[C@@H](CCCNC(=N)N)C(=O)N1CCC[C@H]1C(=O)N1CCC[C@H]1C(=O)N2 [Recombinant TxIA],−1.54,,,,,
"CC[C@H](C)[C@@H]1NC(=O)[C@@H]2CSSC[C@H](NC(=O)[C@@H](NC(=O)CN)CSSC[C@@H](C(=O)O)NC(=O)[C@H](CC(C)C)NC(=O)[C@H](CC(=O)O)NC(=O)[C@@H]3CCCN3C(=O)[C@H](CC(N)=O)NC(=O)[C@H](CC(N)=O)NC(=O)[C@H](C)NC1=O)C(=O)N[C@@H](CO)C(=O)N[C@@H](CC(=O)O)C(=O)N1CCC[C@H]1C(=O)N1CCC[C@H]1C(=O)N2 [Recombinant [R5D]TxIA] (H-GCCSDPPCIANNPDLC-OH; disulfide 2-16, 3-8)",−1.38,2910 nM,almost completely reversed; also recorded: could rescue the activity at the α7 nAChR at a similar level to that of globular TxIA,−1.24,3540 nM,
"CC[C@H](C)[C@@H]1NC(=O)[C@@H]2CSSC[C@H](NC(=O)[C@@H](NC(=O)CN)CSSC[C@@H](C(=O)O)NC(=O)[C@H](CC(C)C)NC(=O)[C@H](CC(=O)O)NC(=O)[C@@H]3CCCN3C(=O)[C@H](CC(N)=O)NC(=O)[C@H](CC(N)=O)NC(=O)[C@H](C)NC1=O)C(=O)N[C@@H](CO)C(=O)N[C@@H](CC(N)=O)C(=O)N1CCC[C@H]1C(=O)N1CCC[C@H]1C(=O)N2 [Recombinant [R5N]TxIA] (H-GCCSNPPCIANNPDLC-OH; disulfide 2-16, 3-8)",−1.36,,but not when an asparagine residue was introduced in this position,,1830 nM,
"CC[C@H](C)[C@@H]1NC(=O)[C@@H]2CSSC[C@H](NC(=O)CN)C(=O)N[C@@H](CSSC[C@@H](C(N)=O)NC(=O)[C@H](CC(C)C)NC(=O)[C@H](CC(=O)O)NC(=O)[C@@H]3CCCN3C(=O)[C@H](CC(N)=O)NC(=O)[C@H](CC(N)=O)NC(=O)[C@H](C)NC1=O)C(=O)N[C@@H](CO)C(=O)N[C@@H](CCCNC(=N)N)C(=O)N1CCC[C@H]1C(=O)N1CCC[C@H]1C(=O)N2 [Synthetic TxIA, reference compound]",,1810 nM,,,4.6 nM,
Vc1.1,,,,,,potent analgesic properties
